The assay concerns the target T1, inducible NO-synthase (NO-synthase 2) (Homo sapiens, UniProt P35228).
T1 construct: positive control (induction of the enzyme): mixtures of interferon-(1000 U/ml) and of interleukin 1-(100 U/ml); endogenous in cells; 267(30), 21277-21280, 1992
Put plainly: Inhibition of inducible NO-synthase (test of Heck et al.): nitrite/nitrate measured after stimulating NO-synthase 2 with interferon and interleukin 1. Type of assay: cell-based. As to the method:
The activity of N,N′-bis(2-pyridyl)methyl-N,N′-bis(3,4,5-trimethoxybenzyl)ethylenediamine on inducible NO-synthase was evaluated in the test described by Heck et al., (J.B.C., Vol. 267, No. 30, 21277-21280, Oct. 25, 1992).
The object of this test is to show the reduction in the concentration of nitrate and nitrite, ultimately, after stimulating NO-synthase 2.
The following controls were introduced into the tests:
A: positive control (induction of the enzyme): mixtures of interferon-(1000 U/ml) and of interleukin 1-(100 U/ml);
To determine the activity of the test product, the amount of stable NO reaction products (nitrites and nitrates) is measured using the “nitric calorimetric assay” kit marketed by Boehringer under the reference 1756.28.
N,N′-bis(2-pyridyl)methyl-N,N′-bis(3,4,5-trimethoxybenzyl) ethylenediamine was tested at concentrations of 10 μM, 50 μM and 100 μM in ethanol.

T1 sequence (P35228 whole entry, species assumed): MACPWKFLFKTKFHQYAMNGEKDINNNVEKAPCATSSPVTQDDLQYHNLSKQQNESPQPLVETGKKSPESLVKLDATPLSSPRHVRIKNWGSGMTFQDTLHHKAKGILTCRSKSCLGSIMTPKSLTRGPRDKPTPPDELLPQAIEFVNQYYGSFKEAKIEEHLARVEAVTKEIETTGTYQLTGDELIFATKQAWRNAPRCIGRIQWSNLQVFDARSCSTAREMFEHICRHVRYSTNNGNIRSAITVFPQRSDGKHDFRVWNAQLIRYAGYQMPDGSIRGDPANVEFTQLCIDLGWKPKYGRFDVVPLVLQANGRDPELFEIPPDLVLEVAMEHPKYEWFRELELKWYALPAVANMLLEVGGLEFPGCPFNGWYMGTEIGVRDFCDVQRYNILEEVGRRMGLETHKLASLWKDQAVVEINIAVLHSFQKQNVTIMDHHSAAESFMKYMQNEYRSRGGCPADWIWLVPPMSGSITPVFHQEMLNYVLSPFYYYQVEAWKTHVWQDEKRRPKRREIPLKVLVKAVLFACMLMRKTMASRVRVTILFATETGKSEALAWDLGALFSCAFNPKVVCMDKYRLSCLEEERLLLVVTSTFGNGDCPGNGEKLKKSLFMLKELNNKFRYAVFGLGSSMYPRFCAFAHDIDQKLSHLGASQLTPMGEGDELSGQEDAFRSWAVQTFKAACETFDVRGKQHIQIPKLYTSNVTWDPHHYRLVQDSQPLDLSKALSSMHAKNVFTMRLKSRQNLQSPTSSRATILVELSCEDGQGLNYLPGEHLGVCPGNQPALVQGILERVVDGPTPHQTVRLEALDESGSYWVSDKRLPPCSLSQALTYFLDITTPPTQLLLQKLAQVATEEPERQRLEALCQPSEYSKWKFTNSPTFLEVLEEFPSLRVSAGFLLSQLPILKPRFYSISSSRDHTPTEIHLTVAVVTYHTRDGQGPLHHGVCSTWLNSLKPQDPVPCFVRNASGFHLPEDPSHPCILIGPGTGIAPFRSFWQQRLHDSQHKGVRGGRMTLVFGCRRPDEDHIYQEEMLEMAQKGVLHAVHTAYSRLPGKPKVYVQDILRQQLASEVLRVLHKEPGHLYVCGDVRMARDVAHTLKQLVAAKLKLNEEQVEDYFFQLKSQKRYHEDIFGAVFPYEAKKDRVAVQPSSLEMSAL

Regarding `COc1cc(CN(CCN(Cc2cc(OC)c(OC)c(OC)c2)Cc2ccccn2)Cc2ccccn2)cc(OC)c1OC` [N,N′-bis(2-pyridyl)methyl-N,N′-bis(3,4,5-trimethoxybenzyl)ethylenediamine], where the note is “10 μM in ethanol, nitrites and nitrates after induction with interferon (1000 U/ml) and interleukin 1 (100 U/ml)”, at 10 µM the inhibition was 18.8%. For the same molecule, the inhibition (commonly the relative decrease from the control value, in per cent) at 50 µM (50 μM in ethanol, nitrites and nitrates after induction with interferon (1000 U/ml) and interleukin 1 (100 U/ml)) was determined as 48.3%. The inhibition at 100 µM (100 μM in ethanol, nitrites and nitrates after induction with interferon (1000 U/ml) and interleukin 1 (100 U/ml)) worked out at 62%. Besides, where the note is “conclusion from the test at 10-100 μM”, the “effect on inducible NO-synthase (in words)” value is reported as “has an inhibitory effect on inducible NO-synthase”.

Source of the values: patent US20040152735A1, “NO-synthase inhibitors comprising N,N'-bis(2-pyridyl)methyl-N,N'-bis(3,4,5-trimethoxybenzyl) ethylenediamine” (SOCIETE L'OREAL, S.A., priority 2001, published 2004).
